The values that follow come from PMC4286326 (Journal of the American Chemical Society, 2014).

Like-named read-outs stand apart in the source and are kept apart here. Bounds are passed on as bounds.

Data set [1] is described as follows: in vitro. Conditions: dog.
The subject of data set [2] is WT M2-expressing A/Udorn/72. The data set is described as follows: microbe, parasite or virus in culture. The format is cell-based. Conditions: Influenza A virus, MDCK, read-out: A/Udorn/72 (S31) EC50.
For data set [3], the target named is WT M2 (A/M2) (Influenza A virus, UniProt P0DOF5). Nature of the data set: biochemical.
WT M2 (A/M2), sequence (P0DOF5 whole entry, looked up): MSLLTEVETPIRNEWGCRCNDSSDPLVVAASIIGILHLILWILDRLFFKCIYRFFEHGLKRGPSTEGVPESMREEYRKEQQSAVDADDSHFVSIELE

Compound `NC12CC3CC(CC(C3)C1)C2` [Compound 1, amantadine, reference compound] returned a CC50 in data set [1] of over 300 µM. For the same compound, the EC50 in data set [2] came to 0.3 µM.
Broadly, the inhibition is the share of the control response that was lost under treatment. On to `Brc1ccc(CNC23CC4CC(CC(C4)C2)C3)s1` [Compound 11, N-[(5-bromothiophen-2-yl)methyl]adamantan-1-amine], for which the inhibition at 100 µM in data set [3] (read-out: % WT inhibition) and in data set [3] (read-out: % WT(S31) inhibition) was 77% each time. In addition, the CC50 in data set [1] amounted to 123 µM. Also, in data set [2], the EC50 is 4.6 µM.
